# In PubChem BioAssay (NCI):
#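 Values below derive from 48-hour exposures of cells grown in 96-well plates, with endpoints linearly interpolated between the two concentrations bracketing the appropriate inhibition level. TGI is the concentration that stops growth completely.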
# Tests used:
# Experiment in all cases: NCI anticancer screen, dose series, 48 h
# HL-60(TB) leukemia = tested on: HL-60(TB) leukemia
# OVCAR-3 ovarian = tested on: OVCAR-3 ovarian
# OVCAR-8 ovarian = tested on: OVCAR-8 ovarian
# A549 NSCLC = tested on: A549 NSCLC
# NCI-H460 lung = tested on: NCI-H460 lung
# SK-MEL-5 melanoma = tested on: SK-MEL-5 melanoma
# SNB-75 CNS = tested on: SNB-75 CNS
# SK-MEL-2 melanoma = tested on: SK-MEL-2 melanoma
Structure (SMILES),TGI (HL-60(TB) leukemia),TGI (OVCAR-3 ovarian),TGI (OVCAR-8 ovarian),TGI (A549 NSCLC),TGI (NCI-H460 lung),TGI (SK-MEL-5 melanoma),TGI (SNB-75 CNS),TGI (SK-MEL-2 melanoma)
CCOC(=O)c1oc2ccc(OC)c3c2c1CCC3,> 100 µM,> 100 µM,> 100 µM,> 100 µM,> 100 µM,> 100 µM,> 100 µM,> 100 µM
COc1cc2c(cc1OC(=O)CC(C)O)C1C(OC2=O)C(OC(C)=O)C=C2CCN(C)[C@H]21 (some centres undefined),–,> 100 µM,> 100 µM,> 100 µM,> 100 µM,> 100 µM,38.4 µM,41.5 µM
CCOC(=O)C1Oc2ccc([N+](=O)[O-])c3c2C1(O)CCC3 (centres undefined),> 100 µM,> 100 µM,> 100 µM,> 100 µM,> 100 µM,> 100 µM,> 100 µM,> 100 µM
COc1ccc(N=c2ssc3c(=S)ssc23)cc1,28.2 µM,61.7 µM,43.9 µM,> 100 µM,–,57.1 µM,75.6 µM,> 100 µM
N#CC(C(=O)CCC(=O)Nc1cccc(Cl)c1)c1ccccc1 (centres undefined),> 100 µM,> 100 µM,> 100 µM,> 100 µM,> 100 µM,> 100 µM,> 100 µM,> 100 µM
CCOC(=O)C1=C(NC)OC/C1=N\NC(=O)c1ccccc1O,71.4 µM,98.5 µM,> 100 µM,> 100 µM,> 100 µM,> 100 µM,> 100 µM,48.2 µM
COc1cc(C(=O)C/C(CCC(=O)Nc2ccccc2[N+](=O)[O-])=N\NC(=O)CC#N)ccc1O,> 100 µM,> 100 µM,> 100 µM,> 100 µM,> 100 µM,> 100 µM,> 100 µM,> 100 µM
CCC1CN2CCc3cc(OC)c(OC)cc3C2CC1CC1c2cc(OC)c(OC)cc2CCN1C(=O)C1CCCN1C(=O)OCc1ccccc1 (centres undefined),28.9 µM,30.7 µM,31.7 µM,39.2 µM,30.2 µM,28.8 µM,28.3 µM,33.6 µM
Cn1cnc2nc(Cl)nc(NC(C)(C)C(C)(C)O)c21,> 100 µM,> 100 µM,> 100 µM,> 100 µM,> 100 µM,> 100 µM,> 100 µM,> 100 µM
CC(=O)OC1CCn2nnc(CO[Si](C)(C)C(C)(C)C)c21 (centres undefined),–,> 100 µM,> 100 µM,> 100 µM,> 100 µM,> 100 µM,> 100 µM,> 100 µM
COc1ccc(C2=C(Cl)c3cc(OC)c(OC)cc3C2Cl)cc1OC (centres undefined),35.3 µM,28.4 µM,39 µM,42 µM,34.8 µM,28.5 µM,33.4 µM,–
O=C(O)C1(P(=O)(O)O)CC1,> 100 µM,> 100 µM,> 100 µM,> 100 µM,> 100 µM,> 100 µM,> 100 µM,> 100 µM
C[Si](C)(C)OC1(C#N)C2C3CC4C2C(=O)C2C4C3C21 (centres undefined),> 100 µM,> 100 µM,> 100 µM,> 100 µM,> 100 µM,> 100 µM,> 100 µM,> 100 µM
Cc1cc2c(C)n(Cc3ccc(Cl)cc3Cl)nc2c(C#N)c1C,> 100 µM,> 100 µM,> 100 µM,> 100 µM,> 100 µM,> 100 µM,62 µM,> 100 µM
Nn1c(-c2ccccc2Cl)nc2ccccc2c1=O,> 100 µM,> 100 µM,> 100 µM,> 100 µM,> 100 µM,> 100 µM,> 100 µM,> 100 µM
O=C1C(=O)N(c2ccc(Cl)c(Cl)c2)C(=O)C(=O)C1c1nc2ccccc2s1,–,> 100 µM,> 100 µM,> 100 µM,–,> 100 µM,> 100 µM,> 100 µM
CCCCCCc1cc(C(=O)Nc2cccc(C(F)(F)F)c2)nc(N)n1,> 100 µM,> 100 µM,–,> 100 µM,> 100 µM,> 100 µM,> 100 µM,> 100 µM
CCCCCCCCCCCC(=O)OCCOCCOCCOCCOCCOCc1ccc(OC)cc1,51.7 µM,> 100 µM,> 100 µM,> 100 µM,> 100 µM,> 100 µM,> 100 µM,> 100 µM
Cc1c(C#N)c(=O)[nH]c(=O)n1CCN1CCN(C(=O)NCCCCCCNC(=O)N2CCN(CCn3c(C)c(C#N)c(=O)[nH]c3=O)CC2)CC1,> 100 µM,> 100 µM,> 100 µM,> 100 µM,> 100 µM,> 100 µM,> 100 µM,–
O=S(=O)(c1ccccc1)C(CN1CCCCC1)S(=O)(=O)c1ccccc1,> 100 µM,> 100 µM,> 100 µM,> 100 µM,> 100 µM,–,> 100 µM,> 100 µM
CCOC(=O)C(=O)Nc1c(CC)cccc1C(C)C,–,> 100 µM,> 100 µM,> 100 µM,> 100 µM,–,> 100 µM,> 100 µM
CS(=O)(=O)Oc1cccc(/C=N/N=C(\N)NO)c1,52.4 µM,> 100 µM,> 100 µM,> 100 µM,> 100 µM,–,> 100 µM,> 100 µM
